# Data from patent publication US6297043A, “Mumbaistatin, a process for it's production and its use as a pharmaceutical” (Aventis Pharma Deutschland GmbH, priority 1998, dated 2001).
# What was measured:
# [1] = tested on: glucagon-induced glycogenolysis; assay: glucose output of isolated rat hepatocytes: glucagon-induced glycogenolysis; format: cell-based
# Experimental: (§1) Mumbaistatin was further evaluated in isolated rat hepatocytes for its effect on glucose output. It inhibits both fructose-induced gluconeogenesis and glucagon-induced glycogenolysis with IC50 values of about 0.3 μM and 0.6 μM, respectively.
# [2] = tested on: fructose-induced gluconeogenesis; assay: glucose output of isolated rat hepatocytes: fructose-induced gluconeogenesis; format: cell-based
# Experimental: as §1
# [3] = target: T1, rat liver microsomal glucose-6-phosphate translocase (Rattus norvegicus, UniProt F7EWB7); assay: inhibition of rat liver microsomal glucose-6-phosphate translocase activity; format: biochemical
# T1 construct: rat liver microsomal glucose-6-phosphate translocase; from tissue; host or cells: rat liver microsomes
# T1 sequence (F7EWB7 1-429): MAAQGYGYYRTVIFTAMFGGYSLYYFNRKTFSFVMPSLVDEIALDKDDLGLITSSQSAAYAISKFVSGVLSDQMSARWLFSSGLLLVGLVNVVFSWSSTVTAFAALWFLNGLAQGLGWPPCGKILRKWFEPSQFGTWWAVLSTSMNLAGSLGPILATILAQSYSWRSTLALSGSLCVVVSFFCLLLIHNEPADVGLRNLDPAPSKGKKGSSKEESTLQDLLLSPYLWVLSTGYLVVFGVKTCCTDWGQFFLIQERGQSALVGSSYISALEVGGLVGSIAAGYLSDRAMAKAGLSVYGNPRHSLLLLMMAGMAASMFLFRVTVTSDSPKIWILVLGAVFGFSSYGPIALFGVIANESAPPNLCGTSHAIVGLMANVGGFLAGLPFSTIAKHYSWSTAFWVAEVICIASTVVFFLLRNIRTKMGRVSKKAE
# Source text: (§2) If desired, DESMOPHEN® (polypropylene oxide) may be used as an antifoam agent in the fermenters. […] In the resulting culture broth, Mumbaistatin is present primarily in the culture filtrate and can thus be recovered by extraction of the culture filtrate with a water immiscible solvent such as, for example, ethyl acetate, dichloromethane, chloroform or butanol at pH 5-8, or by hydrophobic interaction chromatography using polymeric resins such as DIAION® HP-20 (Mitsubishi Chemical Industries Limited, Japan), AMBERLITE® XAD (Rohm and Haas Industries, U.S.A.), or activated charcoal, or by ion exchange chromatography at pH 5-8.
# (§3) The production of Mumbaistatin was monitored by measuring the inhibition of glucose-6-phosphate translocase.
# (§4) The production of the compound was monitored by measuring the inhibition of glucose-6-phosphate translocase.
# [4] = tested on: rat liver microsomal glucose-6-phosphate translocase; assay: as above; format: biochemical; settings: translocase versus phosphatase activity
# Source text: as §2, §3, §4
# [5] = tested on: phosphate/pyrophosphate translocase; assay: effect on activity of phosphate/pyrophosphate translocase; format: biochemical
substance,measurement,setting,value
Mumbaistatin,IC50,[1],~600 nM
same,IC50,[2],~300 nM
same,mode of inhibition of glucose-6-phosphate translocase,[3],reversible and competitive inhibitor
same,IC50,[3]; rat liver microsomal,~25 nM
same,inhibition of glucose-6-phosphate translocase,[3]; rat liver microsomal,potently inhibits
same,specificity for translocase over phosphatase,[4],high degree of specificity for translocase
same,effect on activity of phosphate/pyrophosphate translocase,[5],did not affect
